Entries after “also recorded” stand apart in the source; their conditions may differ. Ends that are not written are not given here.
How the values were obtained:
[1] = tested on: unfractionated heparin (thrombin-induced clot formation); test: Thrombin neutralization assay: clotting time of citrated plasma in the presence of unfractionated heparin; format: biochemical, human; settings: UFH 0.5 IU/ml
Method: It was determined whether heparin-binding peptides of the invention can neutralize unfractionated heparin using the thrombin neutralization assay. The six peptides that were synthesized and used in this Example are: (ARKKAAKA)3VLVLVLVL (SEQ ID NO:5); (ARKKAAKA)(A16)(ARKKAAKA) (SEQ ID NO:30); (ARKKAAKA)4 (SEQ ID NO:31); (AKKARA)6 (SEQ ID NO:32); (ARKKAAKA)3(ARKKCAKA) (SEQ ID NO:33); and cyclized C(ARKKAAKA)4C (SEQ ID NO:34); Citrated plasma was pipetted into a glass tube. Thrombin was added, the tube was manually rotated, and clotting time was determined by observation of clot formation. Normal clotting time is 19-22 seconds.
As a control, to assess the effect of heparin on clot formation, unfractionated heparin was added to the plasma at 0.5 IU anti-thrombin activity/ml and then thrombin was added. Clotting time in the presence of heparin alone was greater than 3 minutes.
To test the effect of peptides, heparin and six peptides at the concentrations indicated in Table 4 were added to the plasma, the mixture was allowed to stand at room temperature for 1 minute, and thrombin was added. The time for the clot to form is indicated. Experiments were performed using plasma from three volunteers—A, B, and C.

[2] = Hemodynamic effects in rats after administration of the LMWH Lovenox; settings: in the presence of LMWH Lovenox
Method: Next, experiments were performed in which the animals were treated with the peptides after the administration of the LMWH Lovenox®, as would happen in the clinical situation, because binding of peptides to LMWH would be expected to reduce the effects of the peptides on hemodynamic function.

[3] = Affinity coelectrophoresis (ACE) of peptide binding to radiolabeled low Mr heparin; parameters: species or system pig; settings: for Kd: pH 7.0, mean and standard deviation of four assays, read-out: Kd (nM), affinity for low molecular weight heparin
Description: Preparation of Radiolabeled Heparin. Whole heparin from pig intestinal mucosa (Sigma) was tyramine end-labeled and radiolabeled with Na^125I (Amersham, Pharmacia Biotech, Inc., Piscataway, N.J.) to an average specific activity≅1.0×10^7 CPM/μg as described (San Antonio, J. D., et al., Biochemistry, 32:4746-4755, 1993). Radiolabeled heparin was fractionated on Sephadex G-100 (Bio-Rad Laboratories, Hercules, Calif.) and the final≅12% of material to elute was retained as the low Mr material of ≦6,000 (Jordan, R., D. Beeler, and R. Rosenberg, J. Biol. Chem., 254:2902-2913, 1979; Laurent, T. C., et al., Biochem. J., 175:691-701, 1978).
Analysis of Peptide-Heparin Interactions by Affinity Coelectrophoresis (ACE). ACE was used to study interactions between peptides and low molecular weight (low Mr) heparin (WO00/45831). In ACE, trace concentrations of radiolabeled heparin are electrophoresed through agarose lanes containing peptides at various concentrations. These analyses are used to determine the dissociation constants (Kd's). The electrophoretic patterns of radiolabeled heparin are then visualized using a phosphorimager, and the dissociation constant (Kd) corresponds to the protein concentration at which the heparin is half shifted from being fully mobile at very low protein concentrations to maximally retarded at saturating protein concentrations. The lower the Kd value, the higher the affinity.
Binding of radiolabeled heparin to peptides was studied by ACE as detailed elsewhere (San Antonio, J. D., et al., Biochemistry, 32:4746-4755, 1993). […] Briefly, peptides were dissolved in 1×ACE running buffer, 50 mM sodium 3-(N-morpholino)-2-hydroxypropanesulfonate (MOPSO, Sigma)/125 mM sodium acetate, pH 7.0, and serially diluted in running buffer at 2× concentrations. Peptides were then mixed 1:1 with 2% agarose/1% CHAPS, 3-[(3-cholamidopropyl)dimethylammonio]-1-propanesulfonate, (Boehringer Mannheim, Indianapolis, Ind.), and loaded into wells of a 1% agarose gel. Radiolabeled heparin was then loaded in a slot on the anode side of the gel, and electrophoresed through the peptide-containing wells, towards the cathode. Gels were dried and PG mobility was measured with a Phosphorimager (Molecular Dynamics, Sunnyvale, Calif.) by scanning each protein lane and determining the relative radioactivity content per 88-μm pixel through the length of the lane. Retardation coefficient (R) measurements, binding isotherm curve fittings, and apparent Kd value determinations were calculated as detailed previously (Lee, M. K., and A. D. Lander, Proc. Natl. Acad. Sci. USA, 88:2768-2772, 1991; San Antonio, J. D., et al, Biochemistry, 32:4746-4755, 1993).
Retardation coefficients (R) for the migration of low Mr 1^25I-tyramine-heparin through peptides were determined from ACE gel electrophoretograms, and are plotted against peptide concentration. Smooth curves represent non-linear least-squares fits to the equation R=R∞/{1+(Kd/[peptide])^n}.

[4] = tested on: Anti-Factor Xa Activity of the Non-Heparin Glycosaminoglycan Orgaran ®; test: Anti-Factor Xa assay: neutralization of Orgaran in citrate or plasma in vitro; format: biochemical, human
Method: The ability of peptides such as (ARKKAAKA)3VLVLVLVL (SEQ ID NO:5) to neutralize the anti-Factor Xa activity of UFH and LMWH in vitro was tested using the Stachrom Heparin kit (Diagnostica Stago), a standard hematology laboratory assay used to measure the anti-Factor Xa activity of heparin. The assay was performed using the low molecular weight heparin enoxaparin sodium (Lovenox®, Aventis Pharmaceuticals, Inc.), unfractionated heparin (UFH), or the non-heparin glycosaminoglycan danaparoid sodium (Orgaran®, Organon Inc., West Orange, N.J.) in 0.32% citrate or in plasma anticoagulated with 0.32% citrate. Enoxaparin is commonly used clinically as a low molecular weight heparin (LMWH). Danaparoid is commonly used clinically as a non-heparin glycosaminoglycan anticoagulant. Currently, the only FDA approved drug to target UFH is protamine, which is not effective in vivo against LMWH or a non-heparin glycosaminoglycan such as danaparoid. Buffer and ATIII are added to form the heparin/ATIII complex, peptide is added, then Factor Xa, reporter dye substrate for Factor Xa activity, and stop solution, and the dye concentration is read at 405 nm. The absorbance of the dye increases with increasing Factor Xa activity, and thus is inversely proportional to the heparin (anti-Factor Xa activity) concentration. Peptides were tested in plasma obtained from three volunteers (A, B, and C). Platelet function inhibitors PG12 and theophylline were added to the blood immediately upon collection. […]

[5] = 0.30 μg peptide/0.1 ml, plasma A
[6] = 0.30 μg peptide/0.1 ml, plasma B
[7] = 0.35 μg peptide/0.1 ml, plasma B
[8] = 0.35 μg peptide/0.1 ml, plasma C
[9] = 0.40 μg peptide/0.1 ml, plasma A
[10] = 0.40 μg peptide/0.1 ml, plasma B
[11] = 0.40 μg peptide/0.1 ml, plasma C
[12] = 0.50 μg peptide/0.1 ml, plasma A
[13] = 0.50 μg peptide/0.1 ml, plasma B
[14] = 0.50 μg peptide/0.1 ml, plasma C

Sequence	Time for clot formation [1, 5]	Time for clot formation [1, 6]	Time for clot formation [1, 7]	Time for clot formation [1, 8]	Time for clot formation [1, 9]	Time for clot formation [1, 10]	Time for clot formation [1, 11]	Time for clot formation [1, 12]	Time for clot formation [1, 13]	Time for clot formation [1, 14]	effect on blood pressure and heart rate / toxicity [2]	Kd [3]	Orgaran Neutralized ([4]; 1 μg/ml Peptide, A Plasma)	Orgaran Neutralized ([4]; 1 μg/ml Peptide, B Plasma)	Orgaran Neutralized ([4]; 1 μg/ml Peptide, C Plasma)	Orgaran Neutralized ([4]; 1 μg/ml Peptide, Citrate)	Orgaran Neutralized ([4]; 6 μg/ml Peptide, A Plasma)	Orgaran Neutralized ([4]; 6 μg/ml Peptide, B Plasma)	Orgaran Neutralized ([4]; 6 μg/ml Peptide, C Plasma)	Orgaran Neutralized ([4]; 6 μg/ml Peptide, Citrate)	other results
ARKKAAKAARKKAAKAARKKAAKAARKKAAKA [(ARKKAAKA)4]	56.33 ± 4.92 s	53.33 ± 1.25 s	39.00 ± 5.35 s	32.67 ± 0.47 s	18.67 ± 0.94 s	26.30 ± 1.25 s	22.67 ± 1.25 s	19.67 ± 1.25 s	24.00 ± 0.82 s	20.67 ± 0.94 s	no significant effect on blood pressure and heart rate; also recorded: All four rats tested showed no response	55 ± 32 nM	0.026 ± 0.021 U/ml	0.025 ± 0.009 U/ml	0.020 ± 0.012 U/ml	0.021 ± 0.022 U/ml	0.061 ± 0.006 U/ml	0.057 ± 0.022 U/ml	0.074 ± 0.056 U/ml	0.172 ± 0.028 U/ml	Time for clot formation ([1]; 0.35 μg peptide/0.1 ml, plasma A): 22.33 ± 0.47 s; affinity for low molecular weight heparin [3]: high heparin affinity; Orgaran Neutralized ([4]; 12 μg/ml Peptide, A Plasma): 0.082 ± 0.012 U/ml; Orgaran Neutralized ([4]; 12 μg/ml Peptide, B Plasma): 0.110 ± 0.021 U/ml; Orgaran Neutralized ([4]; 12 μg/ml Peptide, C Plasma): 0.116 ± 0.021 U/ml; Orgaran Neutralized ([4]; 12 μg/ml Peptide, Citrate): 0.178 ± 0.021 U/ml; Orgaran Neutralized ([4]; 60 μg/ml Peptide, A Plasma): 0.211 ± 0.029 U/ml; Orgaran Neutralized ([4]; 60 μg/ml Peptide, B Plasma): 0.192 ± 0.009 U/ml; Orgaran Neutralized ([4]; 60 μg/ml Peptide, C Plasma): 0.182 ± 0.006 U/ml; Orgaran Neutralized ([4]; 60 μg/ml Peptide, Citrate): 0.298 ± 0.044 U/ml; Orgaran Neutralized ([4]; 120 μg/ml Peptide, A Plasma): 0.286 ± 0.040 U/ml; Orgaran Neutralized ([4]; 120 μg/ml Peptide, B Plasma): 0.302 ± 0.012 U/ml; Orgaran Neutralized ([4]; 120 μg/ml Peptide, C Plasma): 0.299 ± 0.024 U/ml; Orgaran Neutralized ([4]; 120 μg/ml Peptide, Citrate): 0.366 ± 0.019 U/ml
ARKKAAKAARKKAAKAARKKAAKAVLVLVLVL [(ARKKAAKA)3VLVLVLVL]	37.00 ± 2.16 s	40.00 ± 1.63 s	28.33 ± 1.70 s	45.33 ± 2.05 s	20.00 ± 0.82 s	26.67 ± 1.25 s	32.33 ± 2.05 s	17.67 ± 1.25 s	23.67 ± 0.47 s	25.67 ± 0.47 s	no, or minimal, adverse effects on blood pressure or heart rate	57 ± 23 nM	0.028 ± 0.016 U/ml	0.026 ± 0.011 U/ml	0.035 ± 0.010 U/ml	0.078 ± 0.031 U/ml	0.050 ± 0.026 U/ml	0.049 ± 0.021 U/ml	0.075 ± 0.005 U/ml	0.114 ± 0.007 U/ml	Orgaran Neutralized ([4]; 12 μg/ml Peptide, A Plasma): 0.109 ± 0.019 U/ml; Orgaran Neutralized ([4]; 12 μg/ml Peptide, B Plasma): 0.083 ± 0.016 U/ml; Orgaran Neutralized ([4]; 12 μg/ml Peptide, C Plasma): 0.114 ± 0.010 U/ml; Orgaran Neutralized ([4]; 12 μg/ml Peptide, Citrate): 0.227 ± 0.017 U/ml; Orgaran Neutralized ([4]; 60 μg/ml Peptide, A Plasma): 0.281 ± 0.036 U/ml; Orgaran Neutralized ([4]; 60 μg/ml Peptide, B Plasma): 0.258 ± 0.013 U/ml; Orgaran Neutralized ([4]; 60 μg/ml Peptide, C Plasma): 0.248 ± 0.020 U/ml; Orgaran Neutralized ([4]; 60 μg/ml Peptide, Citrate): 0.380 ± 0.021 U/ml; Orgaran Neutralized ([4]; 120 μg/ml Peptide, A Plasma): 0.366 ± 0.010 U/ml; Orgaran Neutralized ([4]; 120 μg/ml Peptide, B Plasma): 0.320 ± 0.010 U/ml; Orgaran Neutralized ([4]; 120 μg/ml Peptide, C Plasma): 0.296 ± 0.011 U/ml; Orgaran Neutralized ([4]; 120 μg/ml Peptide, Citrate): 0.345 ± 0.032 U/ml
